Data taken from patent publication US20240067702A1, “LACTAM-MODIFIED P[…]” (DONGBAO PURPLE STAR (HANGZHOU) BIOPHARMACEUTICAL CO., LTD., priority 2020, published 2024).
*1 amine or outer side, *2 acyl side, *3 side chain or, on linkers, in order; H or OH if unused. Where a SMILES comes first, the peptide text is derived from it. Bridges are numbered along the chain shown (N, C = ends). Side-chain parts run from the residue outwards. [ ]: non-standard residue; d: D form. The star is where a group is joined. C20 diacid = O=C(O)CCCCCCCCCCCCCCCCCCC(=O)*; γGlu = O=C(O)[C@H](CCC(=O)[*:2])N[*:1]; AEEA = NCCOCCOCC(=O)O; Aib = CC(C)(N)C(=O)O

Legend:
[1] = Plasma stability (PLS) test, mouse plasma; format: in vitro ADME; conditions: pH 7.4, 37° C., up to 120 min, read-out: PLS (H/M) T1/2
Description: To study the stability of test compounds in the plasma of normal mice.
1. Before the experiment, the coagulated frozen plasma was thawed in a water bath at 37° C. Plasma was centrifuged at 4000 rpm for 5 min. If there was blood clot, the blood clot was removed and the pH value was adjusted to 7.4±0.1.
2. Preparation of the test compound solution: 100 μM of the solution was prepared by dilution with DMSO.
3. 98 μL of blank control plasma was added to 2 μL of the test compound solution (100 μM), so that the final concentration of the mixed solution of the two reached 2 μM, and the mixed solution was placed in a 37° C. water bath for incubation.
4. At each time point (0, 10, 30, 60, and 120 min), 1(X) μL of H3PO4 solution and 800 μL of stop solution (200 ng/mL of tolbutamide and 200 ng/mL of labetalol in 100% methanol solution) were added to precipitate protein, and mixed thoroughly.
5. The samples were centrifuged at 4000 rpm for 20 min, and 1(X) μL of supernatant was taken from each well for LC-MS/MS analysis.

[2] = Pharmacokinetic evaluation in cynomolgus monkeys; format: in vivo; conditions: cynomolgus monkey, plasma, 0.02 mg/kg, single SC 0.02 mpk
Description: To test the pharmacokinetics of compounds in cynomolgus monkeys in vivo
The pharmacokinetic characteristics of the compounds in mammals after intravenous injection and subcutaneous injection were tested according to the standard protocol. In the experiment, the candidate compounds were formulated into clear solutions, and a single subcutaneous injection (SC, 0.02 mpk) was given to the cynomolgus monkeys. The vehicle for subcutaneous injection was citrate buffer (20 mM, pH=7). Whole blood was collected and prepared to obtain plasma. Drug concentration was analyzed by LC-MS/MS method, and pharmacokinetic parameters were calculated by Phoenix WinNonlin software.

[3] = Pharmacokinetic evaluation in SD rats; format: in vivo; conditions: rat, plasma, 0.048 mg/kg, single SC 0.048 mpk
Description: To test the pharmacokinetics of compounds in SD rats in vivo
The pharmacokinetic characteristics of the compounds in rodents after subcutaneous injection were tested according to the standard protocol. In the experiment, the candidate compounds were formulated into clear solutions, and a single subcutaneous injection (SC, 0.048 mpk) was given to the rats. The injection vehicle was citrate buffer (20 mM, pH=7). Whole blood was collected and prepared to obtain plasma. Drug concentration was analyzed by LC-MS/MS method, and pharmacokinetic parameters were calculated by Phoenix WinNonlin software.

[4] = Plasma protein binding (PPB) test, mouse; format: in vitro ADME; conditions: pH 7.4, ultracentrifugation
Description: To study the binding of the test compounds to human/mouse plasma albumin.
1. Matrix preparation: On the day of the experiment, the plasma was thawed in cold water and centrifuged at 3220 rpm for 5 min to remove all blood clots. The pH of the obtained plasma was measured and adjusted to 7.4±0.1 using 1% phosphoric acid or 1N sodium hydroxide as needed.
2. Dilution steps of the test compounds: The test compounds were dissolved in dimethyl sulfoxide (DMSO) to prepare stock solutions at concentrations of 10 mM and 2 mM, respectively. A 40 μM working solution was prepared by diluting 2 μL of the stock solution (2 mM) with 98 μL of DMSO. A 400 μM working solution of the control compound was prepared by diluting 10 μL of the stock solution with 240 μL of DMSO. The working solution of the compound (5 μL) was mixed with the blank matrix (995 μL) at a ratio of 1:200 to prepare the loading matrix.
3.1 An equal amount of 30 μL of the loading matrix (n=2) was transferred to the sample collection plate to prepare samples of time 0 (TO) for residue determination. The samples were immediately matched to the corresponding blank buffer in a final volume of 60 μL with a 1:1 volume ratio of plasma to buffer in each well. Then, 60 μL of 4% H3PO4 in H2O and 480 μL of stop solution containing an internal standard were then added to the TO samples of the test compounds. They were then stored at 2-8° C. with other samples pending for further processing.
3.2 The remaining plasma samples were pre-incubated in a carbon dioxide incubator at 37±1° C. for 30 min. The prepared protein-free samples (F samples) and loading matrix samples (230 μL) were transferred to polycarbonate tubes (n=2) and ultracentrifuged at 37° C. and 155000×g (35000 rpm) for 4 hours.
3.3 To prepare T samples (test samples), an additional matrix-containing sample was transferred to a separate 96-well plate (sample incubation plate) and incubated at 37° C. for 4 hours.
3.4 After centrifugation, 30 μL of protein-free sample and 30 μL of T sample were transferred from the second layer of supernatant (below the upper layer) to a new sample collection plate. Each sample was mixed with the corresponding blank buffer or matrix in a final volume of 60 μL with a matrix:buffer volume ratio of 1:1. 60 μL of 4% H3PO4 aqueous solution and 480 μL of stop solution (containing internal standard) were added to all samples. The mixture was centrifuged at 4000 rpm for 20 min, and 100 μL of the supernatant of each sample was taken for LC-MS/MS analysis.

[5] = read-out: Half-life T1/2 (converted)

CC[C@H](C)[C@H](NC(=O)[C@H](CC(C)C)NC(=O)[C@H](Cc1c[nH]c2ccccc12)NC(=O)[C@@H]1CCC(=O)NCCCC[C@H](NC(=O)[C@H](CCC(N)=O)NC(=O)[C@H](C)NC(=O)[C@H](CCCCNC(=O)COCCOCCNC(=O)COCCOCCNC(=O)CC[C@H](NC(=O)CCCCCCCCCCCCCCCCCCC(=O)O)C(=O)O)NC(=O)[C@H](CCCCN)NC(=O)[C@H](CC(=O)O)NC(=O)[C@H](CC(C)C)NC(=O)C(C)(C)NC(=O)[C@@H](NC(=O)[C@H](CO)NC(=O)[C@H](Cc2ccc(O)cc2)NC(=O)[C@H](CC(=O)O)NC(=O)[C@H](CO)NC(=O)[C@@H](NC(=O)[C@H](Cc2ccccc2)NC(=O)[C@@H](NC(=O)CNC(=O)[C@H](CCC(=O)O)NC(=O)C(C)(C)NC(=O)[C@@H](N)Cc2ccc(O)cc2)[C@@H](C)O)[C@@H](C)O)[C@@H](C)CC)C(=O)N[C@@H](C)C(=O)N[C@@H](Cc2ccccc2)C(=O)N[C@@H]([C@@H](C)CC)C(=O)N1)C(=O)N[C@@H](C)C(=O)NCC(=O)NCC(=O)N1CCC[C@H]1C(=O)N[C@@H](CO)C(=O)N[C@@H](CO)C(=O)NCC(=O)N[C@@H](C)C(=O)N1CCC[C@H]1C(=O)N1CCC[C@H]1C(=O)N1CCC[C@H]1C(=O)N[C@@H](CO)C(N)=O [WX-006] (H-Y[Aib]EGTFTSDYSI[Aib]LDKK([AEEA-AEEA-γGlu-C20 diacid])AQKAFIEWLIAGGPSSGAPPPS-NH2; lactam 20-24)
half-life at 2 μM [1]: > 4.82 h
Cmax [2]: 30 nM
Tmax [2]: 29 h
half-life [2, 5]: 72.4 h
AUC(0-t) ([2]; read-out: SC Concentration Integral AUC0-240 h): 3.64 µM·h
half-life [3, 5]: 10 h
Cmax ([3]; read-out: Maximum Plasma Concentration): 16 nM
AUC(0-t) ([3]; read-out: SC Concentration Integral AUC0-72 h): 0.846 µM·h
fraction unbound at 4 h, 0.2 μM [4]: 0.0035
